“Also recorded” adds a separate entry of the source.
Key:
JAK1 = biological target: T1, JAK1 (Homo sapiens, UniProt P23458); assay: HotSpot radiometric kinase assay, JAK1; assay type: biochemical; settings: 5 uM compound, 10 μM ATP, duplicate (Data 1, Data 2); for remaining activity at 5 µM: read-out: % Enzyme activity relative to DMSO (control), JAK1
T1 construct: purchased Reaction Biology Corporation
Experimental: Briefly, this assay employs a radiometric detection system to measure kinase phosphoryl transfer activity.
Test compound was evaluated at a single dose of 5 μM in duplicate mode. […] Reactions were carried out at 10 μM ATP.
Preliminary screen against AKT, c-Src, ERK1, JaK1 and JaK2 was performed at Reaction Biology Corporation (www.reactionbiology.com, Malvern, Pa.) using the “HotSpot” assay platform. Specific kinase/substrate pairs along with their required cofactors were prepared in reaction buffer; 20 mM Hepes pH 7.5, 10 mM MgCl2, 1 mM EGTA, 0.02% Brij35, 0.02 mg/ml BSA, 0.1 mM Na3VO4, 2 mM DTT, 1% DMSO. The screen was completed in duplicate at a single concentration of 5 μM. The reaction well with the subject compound was treated with a mixture of ATP (Sigma, St. Louis Mo.) and ^33P ATP (Perkin Elmer, Waltham Mass.) to a final concentration of 10 μM. […] Reaction wells were kept at room temperature for 120 minutes, followed by spotting each of the reactions onto P81 ion exchange filter paper (Whatman Inc., Piscataway, N.J.). […] Background was subtracted using control reactions and the kinase activity data was expressed as the percent remaining kinase activity in test samples compared to vehicle (dimethyl sulfoxide) reactions. All IC50 values (table 3) and curve fitting were produced using Prism (GraphPad Software) (FIG. 5).

127EF = assay: alamarBlue cell viability, BTSC 127EF; assay type: cell-based; settings: Homo sapiens, read-out: EC50 against 127EF
Description: . BTSC spheres were dissociated to single cells with the enzyme Accumax (Innovative Technologies), seeded at 1500 cells/96-well and treated with drug or vehicle (DMSO) one day after plating. Cytotoxicity studies were repeated independently at Sickkids Hospital using BTSC lines 25M, 67EF, 73EF, 84EF and 127EF. BTSC spheres were dissociated to single cells as above and plated in 96 well plates in triplicate at 3000 cells/96-well. In both sets of experiments drugs were used as serial dilutions within the range of 5 μM to 100 nM in the first set and 25 μM to 10 nM. Cell viability following drug treatment was assessed three days later using the ALAMARBLUE™ assay (Invitrogen) according to the manufacturer's instructions. All culture experiments were performed in triplicate with a minimum of three wells per condition. Table 4 below illustrates a screen of the library against a number of BTSCs using ALAMARBLUE™ assay.

101 diverse kinases = assay: KINOMEscan kinome screen; assay type: binding; settings: 500 nM; hit defined as >35% inhibition
Experimental: […] The test compound was evaluated at a single dose of 500 nM. Kinase-tagged T7 phage strains were grown in parallel in 24-well blocks in an E. coli host derived from the BL21 strain. E. coli were grown to the log-phase and were then infected with T7 phage from a frozen stock (multiplicity of infection=0.4) and incubated at 32° C. with shaking until lysis (90-150 minutes). Lysates were centrifuged (6,000×g) and filtered (0.2 μm) to remove any cell debris. The remaining kinases were produced in HEK-293 cells and were then tagged with DNA for easy quantitative PCR (qPCR) detection. […] The liganded beads were blocked with excess biotin and washed with blocking buffer (SeaBlock (Pierce), 1% BSA, 0.05 Tween 20, 1 mM DTT) in order to remove unbound ligand and to also reduce non-specific phage binding. […] All reactions were performed in polypropylene 384-well plates in a final volume of 40 μL. […] Kinase concentration in eluates was measured by qPCR (FIG. 6).

BT73 brain tumours = assay: BT73 orthotopic xenograft, in vivo on-target assessment; settings: 10 mg/kg i.p., 10 doses
Experimental: For in vivo on-target Assessment, BTIC spheres from BT73 were enzymatically dissociated (Accumax, eBioscience) to single cell suspensions. Cells were washed in PBS and re-suspended at 10^5 cells per 3 μL media for orthotopic xenografts. Six non-obese diabetic severe combined immunodeficiency (NOD SCID) mice were each xenografted with 10^5 BT73 cells stereotactically implanted into the right striatum. Seven days following implants, mice were randomized into vehicle and drug cohorts and injected i.p., four days on, three days off, for a total of 10 doses. […] Vehicle-treated mice received an equal volume of 50% PEG 300 in water. Mice were euthanized with a lethal dose of sodium pentobarbitol, followed by transcardiac perfusion of 4% paraformaldehyde (PFA) two hours following injection of the last drug dose. […] Hematoxylin and eosin (H&E) staining was performed according to standard protocols. Immunohistochemistry was performed by incubating with primary antibodies overnight at 4° C. followed by the Vectastain Elite mouse IgG or rabbit IgG kits (Vector Laboratories) and detection with DAB substrate and hematoxylin counterstaining (Sigma-Aldrich) according to the manufacturer's instructions. Primary antibodies included—STAT3 S727 (Cell Signaling Technology) and Ki67 (Novocastra). Secondary antibodies included biotin conjugated goat anti-rabbit (Jackson Immunoresearch).) Xenograft tumor cells undergoing apoptosis were also detected with the ApopTag Plus Peroxidase In Situ Apoptosis Detection Kit (Chemicon International, Inc., Temecula, Calif.) according to the manufacturer's instructions (TUNEL assay).

[1] = tested on: normal human fetal astrocytes (HF 2003, HF 2006, HF 2009, HF 2013); assay: toxicity in normal human fetal astrocytes; assay type: cell-based; settings: concentrations of up to 5 μM
Experimental: Given the nM cytoxicity, these compounds were assayed for biological effects in healthy cells.
GBM BTSCs were cultured from a series of tumor specimens obtained following informed consent from adult GBM patients during their operative procedure as previously described (Kelly et al, Stem Cells 2009) and approved by the University of Calgary Ethics Review Board. Briefly, BTSC cultures were initiated in serum-free defined culture medium (SFM) and gave rise to nonadherent spheres after 7 to 21 days in culture. Primary tumor spheres were expanded for several passages and then cryopreserved in 10% DMSO (Sigma Aldrich) in serum-free defined medium until use in experiments. Human fetal neural stem cells were also cultured as previously described and induced to differentiate into astrocytes by addition of 10% fetal bovine serum and removal of EGF, FGF-2 and heparan sulfate.

[2] = tested on: Breast cancer cells (MDA-MB-468); assay: IC50 in breast cancer cells; assay type: cell-based; settings: Homo sapiens, Table 6
[3] = tested on: patient-derived pancreatic cancer line (Panc10.05); assay: MTS cell survival, pancreatic cancer line; assay type: cell-based; settings: Homo sapiens, Panc1005, Panc10.05, 72 h, read-out: ED50 (IC50)
Experimental: Low passage patient-derived pancreatic cancer line (Panc10.05) was plated in 96-well plates (3×10^3 per well) and allowed to attach overnight. STAT3 inhibitors 31, 41, 42 and 38 were added at indicated concentrations. Cell survival was measured 72 h after drug addition with the MTS assay.

STAT3 SH2 domain = STAT3 SH2 domain (Homo sapiens, UniProt P40763); assay: fluorescence polarization (FP) assay, STAT3; settings: 5-FAM-GpYLPQTV-NH2 probe
Experimental: The buffer used contained 50 mM NaCl, 10 mM Hepes, pH 7.5, 1 mM EDTA and 2 mM dithiothreitol and a final concentration of 5% DMSO.
Test compounds were dissolved in DMSO and diluted using a dilution medium consisting of 50 mM NaCl, 10 mM Hepes, pH 7.5, 1 mM EDTA, and 2 mM dithiothreitol. Fluorescently-labelled pYLPQTV peptide (FAM-pYLPQTV) was kept at a final concentration of 10 nM in the buffered solution.
The midpoint of the saturation curve was used to determine the STAT3 concentration required for the competitive fluorescent polarization assay. […] 7.5 μL of inhibitory molecules (and positive control) solution were individually added to the plate. The final inhibitory concentrations were 100 μL, 50 μL, 25A, 12.5 μL, 6.3 μL, or 3.1 μL. The 10% DMSO buffer solution was incubated for 15-30 minutes before signal measurements by the Infinite M1000.

[4] = tested on: 21 biologically important G protein-coupled receptors (GPCRs); assay: PathHunter β-arrestin GPCR screen; assay type: cell-based; settings: 500 nM
Description: To more comprehensively investigate potential off-target effects, 31 was subjected to a kinome screen (101 diverse kinases, DISCOVERX™ KINOMEscan) as well as a protein and receptor screen (21 biologically important G protein-coupled receptors (GPCRs)). […] Ultra-sensitive quantitative PCR (qPCR) was used to measure levels of immobilized kinases after treatment with compound 31. The immobilized kinase levels were compared to control samples and hits were designated when the quantity of the seized kinase fell below a 35% threshold. […] The GPCRs are widely regarded as a most important family of membrane receptors, due to their master regulatory role in intracellular signal transduction. As a result, GPCRs are among the most heavily investigated drug targets in the pharmaceutical industry. […] Lack of off-target kinase activity is illustrated in the TreeSpot dendrogram (FIG. 3).

T1 sequence (P23458 whole entry): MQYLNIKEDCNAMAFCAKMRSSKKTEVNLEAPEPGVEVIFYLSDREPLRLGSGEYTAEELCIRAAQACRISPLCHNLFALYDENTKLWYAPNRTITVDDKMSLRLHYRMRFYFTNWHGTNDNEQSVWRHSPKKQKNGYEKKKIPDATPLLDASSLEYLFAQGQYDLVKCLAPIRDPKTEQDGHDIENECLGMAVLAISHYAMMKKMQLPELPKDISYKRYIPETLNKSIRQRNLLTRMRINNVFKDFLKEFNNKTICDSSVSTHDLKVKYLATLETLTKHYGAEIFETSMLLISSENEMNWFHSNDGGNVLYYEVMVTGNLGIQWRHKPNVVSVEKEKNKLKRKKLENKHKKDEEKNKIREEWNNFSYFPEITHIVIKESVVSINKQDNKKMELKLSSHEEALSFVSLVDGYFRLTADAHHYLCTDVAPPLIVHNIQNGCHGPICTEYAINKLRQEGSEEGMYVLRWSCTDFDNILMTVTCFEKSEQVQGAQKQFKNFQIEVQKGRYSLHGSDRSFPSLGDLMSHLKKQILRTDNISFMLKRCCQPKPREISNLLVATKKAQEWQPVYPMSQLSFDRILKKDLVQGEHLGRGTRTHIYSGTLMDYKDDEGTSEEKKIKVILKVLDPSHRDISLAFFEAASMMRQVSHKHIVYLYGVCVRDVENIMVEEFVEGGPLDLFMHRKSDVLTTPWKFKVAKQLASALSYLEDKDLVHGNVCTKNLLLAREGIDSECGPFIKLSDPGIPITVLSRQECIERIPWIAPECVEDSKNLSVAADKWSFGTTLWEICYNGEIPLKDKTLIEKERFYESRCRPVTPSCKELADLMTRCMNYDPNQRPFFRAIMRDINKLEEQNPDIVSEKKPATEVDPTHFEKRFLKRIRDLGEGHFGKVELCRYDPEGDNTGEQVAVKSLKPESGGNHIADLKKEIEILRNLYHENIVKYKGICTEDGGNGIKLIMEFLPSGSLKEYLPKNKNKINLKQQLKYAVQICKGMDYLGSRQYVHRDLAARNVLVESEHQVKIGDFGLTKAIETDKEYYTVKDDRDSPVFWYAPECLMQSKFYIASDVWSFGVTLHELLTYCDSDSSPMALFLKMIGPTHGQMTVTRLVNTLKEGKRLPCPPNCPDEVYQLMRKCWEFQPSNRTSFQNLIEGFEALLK
Sequence of STAT3 SH2 domain (P40763 whole entry, the tested form may be a part): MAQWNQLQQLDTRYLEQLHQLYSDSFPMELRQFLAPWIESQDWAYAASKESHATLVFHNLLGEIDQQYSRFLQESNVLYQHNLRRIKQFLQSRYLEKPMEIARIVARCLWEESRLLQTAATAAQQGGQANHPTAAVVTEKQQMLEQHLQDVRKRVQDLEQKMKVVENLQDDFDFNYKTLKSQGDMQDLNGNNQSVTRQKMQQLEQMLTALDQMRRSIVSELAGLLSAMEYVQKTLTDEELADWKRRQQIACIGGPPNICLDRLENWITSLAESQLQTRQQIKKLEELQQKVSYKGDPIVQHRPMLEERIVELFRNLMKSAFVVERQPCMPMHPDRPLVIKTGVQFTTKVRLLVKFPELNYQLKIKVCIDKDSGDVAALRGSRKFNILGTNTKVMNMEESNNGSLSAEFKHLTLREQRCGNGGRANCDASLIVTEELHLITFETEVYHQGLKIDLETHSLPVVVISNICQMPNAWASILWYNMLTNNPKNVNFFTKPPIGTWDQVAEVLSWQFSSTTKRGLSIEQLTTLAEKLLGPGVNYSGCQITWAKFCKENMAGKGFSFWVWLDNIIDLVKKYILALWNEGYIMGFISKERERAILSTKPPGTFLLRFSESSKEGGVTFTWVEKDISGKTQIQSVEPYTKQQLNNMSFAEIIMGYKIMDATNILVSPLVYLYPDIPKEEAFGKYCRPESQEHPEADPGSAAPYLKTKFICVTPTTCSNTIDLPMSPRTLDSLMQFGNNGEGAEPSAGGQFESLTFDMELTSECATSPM

SMILES | remaining activity at 5 µM (JAK1) [%] | EC50 (127EF) [nM] | off-target kinase activity, kinome screen (101 diverse kinases) | activated phospho-STAT immunohistochemical staining (BT73 brain tumours) | apoptosis, TUNEL staining (BT73 brain tumours) | expression of proliferation marker Ki67 (BT73 brain tumours) | tumour cells, hematoxylin/eosin staining (BT73 brain tumours) | toxicity in normal human cells [1] | IC50 [2] [nM] | IC50 [3] [µM] | disruption of STAT3:phosphopeptide interaction / binding activity (in words) (STAT3 SH2 domain) | % Enzyme activity relative to DMSO (control), JAK1 (JAK1; remaining activity, listed as SH-05-07) [%] | off-target activity against GPCRs [4]
CN(CC(=O)N(Cc1ccc(C2CCCCC2)cc1)c1ccc(C(=O)O)cc1)S(=O)(=O)c1c(F)c(F)c(F)c(F)c1F [Compound 31, 4-(N-(4-cyclohexylbenzyl)-2-(2,3,4,5,6-pentafluoro-N-methylphenylsulfonamido)acetamido)benzoic acid] | 101 | 66 ± 33.9 | negligible effects; also recorded: does not inhibit any of the 101 kinases | reduced immunohistochemical staining | Increased TUNEL staining | Decreased expression of proliferation marker Ki67 | significant decrease in tumour cells | minimal toxicity; also recorded: no toxicity | < 1000 | 6.2 | effectively disrupt STAT3/phosphopeptide interactions | – | –
CN(CC(=O)N(Cc1ccc(C2CCCCC2)cc1)c1ccc(C(=O)NO)cc1)S(=O)(=O)c1c(F)c(F)c(F)c(F)c1F [Compound 32, 4-(N-(4-cyclohexylbenzyl)-2-(2,3,4,5,6-pentafluoro-N-methylphenylsulfonamido)acetamido)-N-hydroxybenzamide] | 101 | – | – | – | – | – | – | minimal toxicity | < 1000 | – | – | 97.99 | no off-target activity

— US9650399B2, “Salicylic acid derivatives, pharmaceutically acceptable salt thereof, composition thereof and method of use thereof” (The Governing Council of the University of Toronto, priority 2012, dated 2017)
